Like-named read-outs stand apart in the source and are kept apart here.
Tests used:
[1] = system: vaginal epithelium; assay type: in vivo, rat; details: for whether the compound mimics the action of 17β-estradiol in the vagina: ovariectomized rats treated intravaginally, Example 3; for effect on the rat vaginal epithelium, in words: ovariectomized rats; for histological change of the vaginal epithelial layer compared to vehicle: rats, intravaginal dosing, Example 2
Protocol: FIG. 4 represents H&E stained cross-sections of rat vagina after 5 days of intravaginal treatment with 100 nM betacellulin in 2% carbomer vehicle.
These histologic changes are the hallmark of a vaginal estrogenic response. Tables 2 and 3 detail the studies performed with mersalyl and betacellulin. The body of the table indicates the number of positive histological changes over the number of samples evaluated.
Table 4 includes the studies performed with the PHD/FIH non-specific inhibitor DMOG, whereas Table 5 is the studies performed with 2,4-DPD.
Table 6 includes the studies performed with the FIH specific inhibitor 3,4-dihydroxybenzoate (3,4-DHB), whereas Table 7 outlines the studies performed with N-oxalyl-D-alanine (NODA).

[2] = system: vaginal epithelium; assay type: in vivo, rat; details: intravaginal; 50 nM 17β-estradiol, 10 nM recombinant mouse betacellulin, 1 μM Mersalyl; 2% carbomer vehicle
[3] = system: Betacellulin; assay: RNA expression analysis (Affymetrix RAE230A/B arrays) of vaginal vault of ovariectomized rats after 17β-estradiol; assay type: in vivo, rat; details: Betacellulin mRNA, single dose 20 μg/kg 17β-estradiol subcutaneously
Source text: RNA was harvested from the entire vaginal vault at each time point and was subjected to RNA expression analysis. Five micrograms of total RNA were used to generate biotin labeled cRNA using an oligo T7 primer in a reverse transcription reaction followed by in vitro transcription reaction with biotin labeled UTP and CTP. Ten micrograms of cRNA were fragmented and hybridized to RAE230A and RAE230B arrays (Affymetrix, Santa Clara, Calif.). Hybridized arrays were stained according to manufacturer's protocols on a Fluidics Station 450 and scanned on an Affymetrix scanner 3000. All array images were visually inspected for defects and quality. Signal values were determined using Gene Chip Operating System 1.0 (GCOS, Affymetrix). For each array, all probe sets were normalized to a mean signal intensity value of 100. The default GCOS statistical values were used for all analyses. Signal values and absolute detection calls were imported into Genesis 2.0 (GeneLogic, Gaithersburg, Md.) for analysis.
A gene was considered to be detectible if the mean expression in either the treated or untreated group was 50 signal units and the percentage of samples with a Present (P) call as determined by GCOS default settings was greater than or equal to 25%. A gene was considered to be regulated if the difference between the treated and untreated groups met the following criteria: (1) the gene had to be detected in at least 25% of the samples of at least one of the groups, (2) the fold change between was at least 1.7, and (3) the p-value based on a T-test had to be ≦0.01. Nine hundred fifty-nine qualifiers on the RAE230A array and 707 qualifiers on the RAE230B array met these conditions.
Based on the time course of response and the biological function associated with them, HIF1α and betacellulin were selected as candidate targets for treatment of vulvovaginal atrophy. These proteins were selected for further study because they were regulated by estradiol after 6 hours of treatment and thus can be expected to be at the top of the estrogenic signaling cascade.

[4] = system: HIF-regulated transcripts; details: in vitro; cited from earlier work
[5] = system: HIF1α transcription; details: cited from earlier work

Molecule: O=C(O)c1ccc(O)c(O)c1 [3,4-DHB, 3,4-dihydroxybenzoate]
- number of positive histological responses/number of samples evaluated ([1]; OVX rat, 3,4-DHB 10 μM intravaginal, Study 1): 1/4
- number of positive histological responses/number of samples evaluated ([1]; OVX rat, 3,4-DHB 100 μM intravaginal, Study 1): 0/4
- number of positive histological responses/number of samples evaluated ([1]; OVX rat, 3,4-DHB 1 mM intravaginal, Study 1): 0/4
- number of positive histological responses/number of samples evaluated ([1]; OVX rat, 3,4-DHB 1 mM intravaginal, Study 2): 0/4
- number of positive histological responses/number of samples evaluated ([1]; OVX rat, 3,4-DHB 1 mM intravaginal, Study 3): 0/3
- number of positive histological responses/number of samples evaluated ([1]; OVX rat, 3,4-DHB 10 mM intravaginal, Study 1): 4/4
- number of positive histological responses/number of samples evaluated ([1]; OVX rat, 3,4-DHB 10 mM intravaginal, Study 2): 1/4
- number of positive histological responses/number of samples evaluated ([1]; OVX rat, 3,4-DHB 10 mM intravaginal, Study 3): 2/3
- number of positive histological responses/number of samples evaluated ([1]; OVX rat, 3,4-DHB 10 mM intravaginal, Study 4): 1/3
- whether the compound mimics the action of 17β-estradiol in the vagina [1]: variable results

Molecule: C[C@@H](NC(=O)C(=O)O)C(=O)O [NODA, N-oxalyl-D-alanine]
- number of positive histological responses/number of samples evaluated ([1]; OVX rat, NODA 10 μM intravaginal, Study 1): 1/4
- number of positive histological responses/number of samples evaluated ([1]; OVX rat, NODA 10 μM intravaginal, Study 2): 1/3
- number of positive histological responses/number of samples evaluated ([1]; OVX rat, NODA 10 μM intravaginal, Study 3): 0/3
- number of positive histological responses/number of samples evaluated ([1]; OVX rat, NODA 100 μM intravaginal, Study 1): 0/4
- number of positive histological responses/number of samples evaluated ([1]; OVX rat, NODA 100 μM intravaginal, Study 2): 0/3
- number of positive histological responses/number of samples evaluated ([1]; OVX rat, NODA 100 μM intravaginal, Study 3): 0/3
- number of positive histological responses/number of samples evaluated ([1]; OVX rat, NODA 1 mM intravaginal, Study 1): 0/4
- number of positive histological responses/number of samples evaluated ([1]; OVX rat, NODA 1 mM intravaginal, Study 2): 0/3
- number of positive histological responses/number of samples evaluated ([1]; OVX rat, NODA 1 mM intravaginal, Study 3): 1/3
- number of positive histological responses/number of samples evaluated ([1]; OVX rat, NODA 1 mM intravaginal, Study 4): 1/4
- number of positive histological responses/number of samples evaluated ([1]; OVX rat, NODA 10 mM intravaginal, Study 1): 3/4
- number of positive histological responses/number of samples evaluated ([1]; OVX rat, NODA 10 mM intravaginal, Study 2): 0/3
- number of positive histological responses/number of samples evaluated ([1]; OVX rat, NODA 10 mM intravaginal, Study 3): 1/3
- number of positive histological responses/number of samples evaluated ([1]; OVX rat, NODA 10 mM intravaginal, Study 4): 0/4
- whether the compound mimics the action of 17β-estradiol in the vagina [1]: variable results

Molecule: COC(=O)CNC(=O)C(=O)OC [DMOG, N-(methoxyooxoacetyl)-glycine methyl ester]
- number of positive histological responses/number of samples evaluated ([1]; OVX rat, DMOG 1 μM intravaginal, Study 2): 0/4
- number of positive histological responses/number of samples evaluated ([1]; OVX rat, DMOG 10 μM intravaginal, Study 1): 3/3
- number of positive histological responses/number of samples evaluated ([1]; OVX rat, DMOG 10 μM intravaginal, Study 2): 2/3
- number of positive histological responses/number of samples evaluated ([1]; OVX rat, DMOG 10 μM intravaginal, Study 3): 2/4
- number of positive histological responses/number of samples evaluated ([1]; OVX rat, DMOG 100 μM intravaginal, Study 1): 0/3
- number of positive histological responses/number of samples evaluated ([1]; OVX rat, DMOG 1 mM intravaginal, Study 1): 0/3
- number of positive histological responses/number of samples evaluated ([1]; OVX rat, DMOG 1 mM intravaginal, Study 3): 1/4
- whether the compound mimics the action of 17β-estradiol in the vagina [1]: variable results

Molecule: C[C@]12CC[C@@H]3c4ccc(O)cc4CC[C@H]3[C@@H]1CC[C@@H]2O [17β-estradiol]
- histology of rat vagina (H&E stained cross-sections) compared to vehicle, FIG. 1 [2]: positive effect
- Fold Change Over Vehicle ([3]; 6 hour): +2.9
- Fold Change Over Vehicle ([3]; 72 hour): +2.8
- Fold Change Over Vehicle ([3]; 120 hour (5 day)): +1.6

Molecule: CCOC(=O)c1ccnc(C(=O)OCC)c1 [2,4-DPD, 2,4-pyridinedicarboxylic acid, diethyl ester]
- number of positive histological responses/number of samples evaluated ([1]; OVX rat, 2,4-DPD 0.1 μM intravaginal, Study 2): 0/4
- number of positive histological responses/number of samples evaluated ([1]; OVX rat, 2,4-DPD 1 μM intravaginal, Study 2): 1/4
- number of positive histological responses/number of samples evaluated ([1]; OVX rat, 2,4-DPD 10 μM intravaginal, Study 1): 0/4
- number of positive histological responses/number of samples evaluated ([1]; OVX rat, 2,4-DPD 10 μM intravaginal, Study 2): 1/3
- number of positive histological responses/number of samples evaluated ([1]; OVX rat, 2,4-DPD 10 μM intravaginal, Study 3): 1/4
- whether the compound mimics the action of 17β-estradiol in the vagina [1]: variable results

Molecule: CODDD: peptide corresponding to amino acids 549-582 of HIF1α (C-terminal oxygen dependent degradation domain), FIG. 3
- upregulation of HIF-regulated transcripts [4]: capable of upregulating HIF-regulated transcripts in vitro

Molecule: COC(CNC(=O)c1ccccc1OCC(=O)O)[CH2][Hg][OH] (centres unmarked) [Mersalyl, mersalyl]
- upregulation of HIF1α transcription [5]: upregulate HIF1α transcription
- histology of rat vagina (H&E stained cross-sections) compared to vehicle, FIG. 1 [2]: positive effect
- number of positive histological changes over the number of samples evaluated ([1]; Mersalyl dose 0.1 μM intravaginal, Study 2): 2/4
- number of positive histological changes over the number of samples evaluated ([1]; Mersalyl dose 0.1 μM intravaginal, Study 3): 4/4
- number of positive histological changes over the number of samples evaluated ([1]; Mersalyl dose 0.1 μM intravaginal, Study 4): 4/4
- number of positive histological changes over the number of samples evaluated ([1]; Mersalyl dose 1 μM intravaginal, Study 1): 3/3
- number of positive histological changes over the number of samples evaluated ([1]; Mersalyl dose 1 μM intravaginal, Study 2): 4/4/
- number of positive histological changes over the number of samples evaluated ([1]; Mersalyl dose 1 μM intravaginal, Study 3): 2/3
- number of positive histological changes over the number of samples evaluated ([1]; Mersalyl dose 1 μM intravaginal, Study 4): 4/4/
- number of positive histological changes over the number of samples evaluated ([1]; Mersalyl dose 10 μM intravaginal, Study 1): 0/3
- number of positive histological changes over the number of samples evaluated ([1]; Mersalyl dose 10 μM intravaginal, Study 2): 0/4
- number of positive histological changes over the number of samples evaluated ([1]; Mersalyl dose 100 μM intravaginal, Study 1): 0/3
- effect on the rat vaginal epithelium, in words [1]: expansion of the vaginal epithelium in a manner similar to treatment with 17β-estradiol
- histological change of the vaginal epithelial layer compared to vehicle [1]: clear thickening and differentiation of the vaginal epithelial layer

B1: Betacellulin: mouse betacellulin (Asp32-Gln118) generated in E. coli by R&D Systems (catalog # 1025-CE); member of the EGF family (protein)
chain: DGNTTRTPETNGSLCGAPGENCTGTTPRQKVKTHFSRCPKQYKHYCIHGRCRFVVDEQTPSCICEKGYFGARCERVDLFYLQQDRGQ
modifications: Mouse betacellulin peptide (asp32-gln118)
notes: mouse betacellulin (Asp32-Gln118) generated in E. coli by R&D Systems (catalog # 1025-CE); member of the EGF family
- histology of rat vagina (H&E stained cross-sections) compared to vehicle, FIG. 1 [2]: positive effect
- number of positive histological changes over the number of samples evaluated ([1]; Betacellulin dose 10 nM intravaginal, Study 1): 3/3
- number of positive histological changes over the number of samples evaluated ([1]; Betacellulin dose 10 nM intravaginal, Study 2): 0/4
- number of positive histological changes over the number of samples evaluated ([1]; Betacellulin dose 10 nM intravaginal, Study 3): 3/3
- number of positive histological changes over the number of samples evaluated ([1]; Betacellulin dose 100 nM intravaginal, Study 2): 3/4
- number of positive histological changes over the number of samples evaluated ([1]; Betacellulin dose 100 nM intravaginal, Study 3): 2/3
- number of positive histological changes over the number of samples evaluated ([1]; Betacellulin dose 1 μM intravaginal, Study 2): 2/4
- effect on the rat vaginal epithelium, in words [1]: mimics the effects of estrogen on the rat vaginal epithelium
- histological change of the vaginal epithelial layer compared to vehicle [1]: clear thickening and differentiation of the vaginal epithelial layer

B2: NODDD: peptide corresponding to amino acids 343417 of HIF1α (N-terminal oxygen dependent degradation domain), FIG. 3 (peptide)
chain: SGIIQHDLIFSLQQTECVLKPVESSDMKMTQLFTKVESEDTSSLFDKLKKEPDALTLLAPAAGDTIISLDFGSND
modifications: NODDD sequence from Hif1a (amino acids 343-417)
- upregulation of HIF-regulated transcripts [4]: capable of upregulating HIF-regulated transcripts in vitro

Source: US20060216295A1, “Methods of identifying therapeutic targets for the treatment of vulvovaginal atrophy” (Wyeth, priority 2005, published 2006)
